The values that follow come from publication PMC6379368, “Extracellular and intracellular small-molecule galectin-3 inhibitors” (Scientific Reports, 2019).

In one series the test system is AsPC-1 cells. Briefly: MTT assay, AsPC-1 pancreatic cancer cells. The series is classed as cell-based. The following applies: AsPC-1, 72 hours. The procedure:
The MTT (3-[4,5-dimethylthiazol-2-yl]−2,5-diphenyltetrazolium bromide) assays were performed as previously described. In brief, cells were seeded in 96-well plates (6000 cells/well for MCF-7 and HCC1937 and 5000 cells for JIMT-1 in 180 μl fully-supplemented medium as described under Cell culture). The cells were incubated for 24 hours before addition of galectin-3 inhibitors. The inhibitors were diluted in PBS from their respective stock solution in DMSO (see Galectin-3 inhibitors) and used at final concentrations ranging from 0.04 to 40 μM. DMSO was adjusted to make the final DMSO concentration 0.2% for all inhibitor concentrations, including the control sample (no inhibitor). After 72 hours of treatment, 20 μl of 5 mg/ml MTT solution (in PBS) was added to each well and incubation continued for 1 hour at 37 °C. […] Absorbance was monitored at 540 nm using a Labsystems iEMS Reader MF (Labsystems Oy, Helsinki, Finland) and the software DeltaSoft II v.4.14 (Biometallics Inc., Princeton, NJ, USA). […]
Fluorescence anisotropy assay
The affinity between inhibitor 1 and the carbohydrate recognition domain (CRD) of galectin-8C and between inhibitor 3 and the CRD of galectin-2, -4N, -4C, 8C, and -9C was determined using the fluorescence anisotropy assay described in the main article. […]
In general terms: Tetrazolium assays rely on reduction of a dye to a coloured formazan, in cell work by metabolically active cells.

Another series has as its system galectin-1. Details: method as in Delaine et al., Salameh et al., Peterson et al. The conditions noted are these: lower compared to galectin-3; ref Delaine et al., Salameh et al., Peterson et al.; cited from earlier work.
Another series concerns the target galectin-3 (Homo sapiens, UniProt P17931). Briefly: GPN-induced galectin-3 accumulation (puncta) in JIMT-1 breast cancer cells. The series is classed as cell-based. Details: In the intracellular assay, in contrast, only endogenous galectin was present; endogenous in cells; host or cells: JIMT-1 breast cancer cells. The procedure: The total number of galectin-3 puncta and nuclei in the microscopy images were quantified using the software ImageJ.
Cells were seeded in multi-well plates with sterile glass coverslips placed in each well and allowed to adhere to the cell culture surface for at least 24 hours. Then the cells were pre-treated with the different galectin-3 inhibitors at different concentrations (or DMSO as control) for 15 minutes or 24 hours followed by addition of the lysosomal damaging peptide GPN[42] and incubated another 13 minutes, with the inhibitors still present. The 13-minute incubation with GPN and 15-minute pre-incubation with inhibitors were done in DMEM/Ham’s F12 medium with 15 mM HEPES buffer (without serum), whereas the 24-hour incubation with inhibitors were performed in fully supplemented DMEM/Ham’s F12 medium (as described under Cell culture).
After treatment with GPN, the cells were fixed in 3.7% (v/v) formaldehyde in phosphate-buffered saline (PBS) for 15 minutes, permeabilized and blocked using 1% (v/v) TWEEN 20 and 5% (w/v) BSA in PBS for 30 minutes, then incubated with primary and secondary antibodies for one hour each (washed with PBS in between). Primary and secondary antibodies for galectin-3 staining were a rat anti-mouse galectin-3 IgG antibody[50],[51] […] All antibodies were diluted in 0.05% TWEEN 20 and 5% BSA in PBS. […] The coverslips were mounted on glass slides using Mowiol® 4–88 and left at 8 °C overnight before further examination. For imaging of the cells, a LSM-510 confocal laser scanning microscope (Carl Zeiss Microscopy GmbH, Oberkochen, Germany), equipped with a Hamamatsu R6357 photomultiplier (Hamamatsu Photonics K.K., Hamamatsu, Japan), was used. […] Maximum intensity projections of each picture obtained were analyzed with ImageJ 1.47 v (Rasband, W.S., ImageJ, U. S. National Institutes of Health, Bethesda, Maryland, USA) to quantify the number of galectin-3 dots and the number of nuclei in each picture. The quantification of particles (i.e. galectin-3 puncta/nucleus) was carried out using batch processing in the software, where a single macro (including parameters such as image thresholds, particle size and circularity) was used for all images obtained from a single experiment, this to reduce user bias and time consumption.

galectin-3, sequence (P17931 whole entry): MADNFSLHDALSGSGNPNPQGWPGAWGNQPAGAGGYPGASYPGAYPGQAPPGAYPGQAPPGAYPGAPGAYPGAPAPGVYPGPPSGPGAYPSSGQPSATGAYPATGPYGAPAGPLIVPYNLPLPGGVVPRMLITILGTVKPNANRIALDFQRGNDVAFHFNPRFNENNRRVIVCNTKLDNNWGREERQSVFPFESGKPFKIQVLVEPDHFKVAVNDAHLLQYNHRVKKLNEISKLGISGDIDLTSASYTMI

On to `OC[C@H]1O[C@@H](S[C@@H]2O[C@H](CO)[C@H](O)[C@H](n3cc(-c4cccc(F)c4)nn3)[C@H]2O)[C@H](O)[C@@H](n2cc(-c3cccc(F)c3)nn2)[C@H]1O` [compound 1], for which the “toxicity (MTT)” value with AsPC-1 cells was “low toxicity”. In addition, in the series with galectin-1, the “affinity for galectin-1” value is “high affinity”. Moreover, the “inhibition of galectin-3 accumulation (extent)” value at galectin-3 (15 minutes pre-treatment, high concentrations 50–100 µM) is on record as “complete inhibition of galectin-3 accumulation could not be reached”; on galectin-3 (24 hours pre-treatment, around 1–5 µM), “nearly complete inhibition”.
